Laboratory results as given in patent US20210069295A1, “GALECTINS CONTROL MTOR IN RESPONSE TO ENDOMEMBRANE DAMAGE AND PROVIDE A MECHANISM AND TARGET FOR THE TREATMENT OF AUTOPHAGY-RELATED DISEASES” (STC. UNM, priority 2017, published 2021).
Peptide text beside a SMILES is read from it.

System: Gal8 and Gal9
Experiment: Galectin puncta formation by high-content microscopy in HeLa cells
Type: cell-based
Conditions: HeLa cells overexpressing GFP-Gal8 or GFP-Gal9, 100 μM, 1 h full medium
Method: (A) Analysis of the puncta formation of galectins in response to GPN. HeLa cells overexpressing YFP-fused with the indicated galectins were treated with 100 μM GPN or without (Ctrl) in full medium for 1 h and galectin puncta were quantified by HC. […] White masks, algorithm defined cell boundaries (primary objects); green masks, computer-identified galectins puncta (target objects). Data, means±SEM, n≥3 independent experiments (500 primary objects counted per well; ≥5 wells/sample per each experiment); *p<0.05, **p<0.01, † p≥0.05, ANOVA. (B) Immunoprecipitation analysis of the interactions between galectins and mTOR or RagA GTPase. HEK293T cells overexpressing FLAG-tagged galectins were subjected to anti-FLAG immunoprecipitation followed by immunoblotting for endogenous mTOR or RagA. (C) Immunoprecipitation analysis of interactions between Gal8 and mTOR protein complexes in response to GPN treatment. […] Biotinylated proteins from HEK293T cell expressing APEX2-vector or APEX2-Gal8, after GPN and biotin phenol (BP) treatment were affinity-enriched by binding to streptavidin-beads, and samples were analyzed by immunoblotting analysis for endogenous RagA, p14, mTOR or Raptor. […]
(A) HC analysis of the puncta of galectins in response to chloroquine, Bafilomycin A1 and GPN. HeLa cells overexpressing GFP-Gal8 or GFP-Gal9 were treated with 100 μM chloroquine (CQ), […] (BAF) or 100 μM GPN in full medium for 1 h, and the puncta of GFP-Gal8 or GFP-Gal9 were quantified by HC. […] Data, means±SEM, n≥3 independent experiments (500 primary objects counted per well; ≥5 wells/sample per each experiment), † p≥0.05, **p<0.01, ANOVA. […] HeLa cells expressing GFP-Gal8 were treated with 100 μM GPN in full medium for 1 h, and the overlap between GFP-Gal8 and LAMP2 were quantified by HC. […] Data, means±SEM, n≥3 independent experiments (500 primary objects counted per well; ≥5 wells/sample per each experiment), **p<0.01, ANOVA. […]

## NCC(=O)N[C@@H](Cc1ccccc1)C(=O)Nc1ccc2ccccc2c1 [GPN, glycyl-L-phenylalanine 2-naphththylamide] (HELM PEPTIDE1{G.F.[c1ccc2cc(N[*:1])ccc2c1]}$$$$V2.0)
  Gal8 and Gal9 puncta formation: formed puncta
